Laboratory results published in patent US20110183978A1, “Phenylpyri(mi)dinylazoles” (Bayer CropScience AG, priority 2009, published 2011).
Where two headings read alike, the source gives them in different places.

Columns and labels:
[1] = tested on: Pyrenophora teres; assay: Example E: in vivo test on Pyrenophora teres (barley net blotch disease); settings: barley plants sprayed 24 hours before inoculation, scored after 12 days; for pest or weed control at 500 ppm: Pyrenophora teres, 288 h, read-out: % Wirkungsgrad
Description: In Vivo Test on Pyrenophora Teres (Barley Net Blotch Disease) An aqueous suspension of the active substance was prepared by homogenization of a mixture of acetone/Tween/dimethyl sulphoxide and subsequent dilution with water to the desired concentration. Barley plants (variety: Plaisant) are sown in cultivation dishes on a peat-pozzolanic earth substrate (50/50) at 12° C. and sprayed at the first-leaf stage (10 cm size) with the aqueous suspension described above. As a control, plants are sprayed with an aqueous solution with no active substance. After 24 hours the plants are inoculated by spraying with an aqueous suspension of Pyrenophora teres spores (12,000 spores per ml). The spores are derived from a 12 day-old culture. […] After 12 days they are scored in comparison with the control plants.

[2] = physchem
[3] = tested on: Fusarium proliferatum; assay: Example I: production of fumonisin FB1 by Fusarium proliferatum (microtitre plates); type: cell-based; settings: for inhibition at 50 µM: 120 h
[4] = tested on: Peronospora parasitica; assay: Example A: in vivo test on Peronospora parasitica (downy mildew on white cabbage); settings: cabbage plants sprayed 24 hours before inoculation, scored after 5 days; for pest or weed control at 500 ppm: Hyaloperonospora parasitica, 120 h, read-out: % Wirkungsgrad
Description: In Vivo Test on Peronospora Parasitica (Downy Mildew on White Cabbage) An aqueous suspension of the active substance was prepared by homogenization of a mixture of acetone/Tween (dispersant)/dimethyl sulphoxide (DMSO) and subsequent dilution with water to the desired concentration. Cabbage plants (variety: Eminence) are sown in cultivation dishes on a peat-pozzolanic earth substrate (50/50) at 18-20° C. and sprayed at the cotyledon stage with the aqueous suspension described above. As a control, plants are sprayed with an aqueous solution with no active substance. After 24 hours, the plants are inoculated by spraying with an aqueous suspension of Peronospora parasitica spores (50,000 spores per ml). The spores are derived from infected plants. The inoculated cabbage plants are incubated for 5 days at ca. 20° C. in a moist atmosphere. After 5 days, they are scored in comparison with the control plants.

[5] = tested on: Sphaerotheca fuliginea; assay: Example D: in vivo test on Sphaerotheca fuliginea (powdery mildew on cucumber); settings: Podosphaera fuliginea, 288 h, cucumber plants sprayed 24 hours before inoculation, scored after 12 days, read-out: % Wirkungsgrad
How it was run: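 Cucumber plants at cotyledon stage Z10 were sprayed with the compound suspended in acetone/Tween/DMSO diluted with water. After 24 hours they were inoculated with Sphaerotheca fuliginea spores (100,000/ml) and incubated at ca. 20/25° C. and 60/70% RH. Disease was scored after 12 days against untreated sprayed controls.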

[6] = tested on: Pyricularia oryzae; assay: whole plant or invertebrate; type: in vivo; settings: 120 h, read-out: % Activity level
[7] = tested on: Rhizoctonia solani; assay: Example W: in vivo test on Rhizoctonia solani (sheath blight in rice/protective); settings: 96 h, rice, protective, 250 ppm active substance, assessed 4 days after inoculation, read-out: % Activity level
Description: Solvent: 28.5 parts by weight acetone Emulsifier: 1.5 parts by weight alkylaryl polyglycol ethers For the preparation of a suitable active substance preparation, 1 part by weight of active substance is mixed with the stated quantities of solvent and emulsifier and the concentrate is diluted to the desired concentration with water. For the testing for protective activity, young rice plants are sprayed with the active substance preparation at the stated application dosage. One day after the treatment, the plants are inoculated with hyphae of Rhizoctonia solani. […] 4 days after the inoculation, the assessment takes place.

[8] = tested on: Alternaria solani; assay: Example M: in vivo test on Alternaria solani (leaf blotch disease/tomato/protective); settings: 168 h, tomato, protective, 500 ppm active substance, assessed 7 days after inoculation, read-out: % Wirkungsgrad (activity level)
How it was run: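 Protective test: young tomato plants sprayed with active substance (in DMF with alkylaryl polyglycol ether emulsifier, diluted in water) at the stated dosage, then inoculated with Alternaria solani. Disease assessed 7 days after inoculation.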

[9] = tested on: Aspergillus parasiticus; assay: microbe, parasite or virus in culture; type: cell-based; settings: 168 h
[10] = tested on: Fusarium nivale (var. majus); assay: whole plant or invertebrate; type: in vivo; settings: Microdochium nivale, in Triticum aestivum, 120 h, read-out: % Wirkungsgrad (activity level)
[11] = tested on: Fusarium graminearum; assay: microbe, parasite or virus in culture; type: cell-based
[12] = tested on: Venturia inaequalis; assay: Example O: in vivo test on Venturia inaequalis (apple scab/protective); settings: 240 h, protective, assessment 10 days after inoculation, read-out: % Wirkungsgrad
How it was run: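 Protective test: active substance mixed with solvent and alkylaryl polyglycol ether emulsifier, diluted with water, and sprayed on young plants at the stated dosage before Venturia inaequalis inoculation. Scab assessed 10 days after inoculation.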

[13] = tested on: Septoria tritici; assay: Example R: in vivo test on Septoria tritici (leaf blotch in wheat/protective); settings: Zymoseptoria tritici, 504 h, wheat, protective, 1000 ppm active substance, assessed 21 days after inoculation, read-out: % Wirkungsgrad (activity level)
Description: Solvent: 49 parts by weight N,N-dimethylacetamide Emulsifier: 1 part by weight alkylaryl polyglycol ethers For the preparation of a suitable active substance preparation, 1 part by weight of active substance is mixed with the stated quantities of solvent and emulsifier and the concentrate is diluted to the desired concentration with water. For the testing for protective activity, young plants are sprayed with the active substance preparation at the stated application dosage. After drying of the spray coating, the plants are sprayed with a spore suspension of Septoria tritici. […] 21 days after the inoculation, the assessment takes place.

[14] = tested on: Leptosphaeria nodorum; assay: Example Q: in vivo test on Leptosphaeria nodorum (glume blotch in wheat/protective); settings: Parastagonospora nodorum, 192 h, wheat, protective, assessment 8 days after inoculation, read-out: % Wirkungsgrad
Description: (§1) Solvent: 49 parts by weight N,N-dimethylacetamide Emulsifier: 1 part by weight alkylaryl polyglycol ethers For the preparation of a suitable active substance preparation, 1 part by weight of active substance is mixed with the stated quantities of solvent and emulsifier and the concentrate is diluted to the desired concentration with water. For the testing for protective activity, young plants are sprayed with the active substance preparation at the stated application dosage. After drying of the spray coating, the plants are sprayed with spores with a spore suspension of Leptosphaeria nodorum. […] 8 days after the inoculation, the assessment takes place.

[15] = tested on: Rhynchosporium secalis; assay: Example S: in vivo test on Rhynchosporium secalis (leaf scald in barley/protective); settings: 336 h, barley, protective, 1000 ppm active substance, assessed 14 days after inoculation, read-out: % Wirkungsgrad (activity level)
Description: as §1, with “Rhynchosporium secalis.” for “Leptosphaeria nodorum.”, “14” for “8”

[16] = tested on: Sphaerotheca fuliginea; assay: Example L: in vivo test on Sphaerotheca fuliginea (powdery mildew on cucumber/protective); settings: Podosphaera fuliginea, 168 h, cucumber, protective, assessment 7 days after inoculation, read-out: % Wirkungsgrad
How it was run: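 Young cucumber plants sprayed at stated dosage with compound in DMF/alkylaryl polyglycol ether emulsifier diluted in water; inoculated with S. fuliginea spores one day later. Kept in greenhouse at 70% relative humidity, 23° C; protective activity assessed 7 days after inoculation.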

[17] = tested on: Fusarium graminearum; assay: whole plant or invertebrate; type: in vivo; settings: in Hordeum vulgare, 120 h, read-out: % Wirkungsgrad (activity level)
[18] = tested on: Botrytis cinerea; assay: Example P: in vivo test on Botrytis cinerea (gray mould on bean/protective); settings: 48 h, bean, protective, 250 ppm active substance, assessed 2 days after inoculation, read-out: % Wirkungsgrad (activity level)
How it was run: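 Protective test: young bean plants sprayed with the active substance preparation (emulsifier-based concentrate diluted in water) at the stated dosage. Once dry, each leaf received 2 agar pieces bearing Botrytis cinerea. Infection blotch size assessed 2 days after inoculation.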

[19] = tested on: Plasmopara viticola; assay: Example N: in vivo test on Plasmopara viticola (downy mildew, vine/protective); settings: 144 h, vine, protective, assessment 6 days after inoculation, read-out: % Wirkungsgrad
How it was run: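 Protective test: young vine plants were sprayed with active substance diluted in water from a solvent/alkylaryl polyglycol ether emulsifier concentrate at the stated dosage, then inoculated with P. viticola. Plants were moistened and kept 1 day in an incubation cabin, and assessed 6 days after inoculation.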

[20] = tested on: Cochliobolus miyabeanus; assay: Example X: in vivo test on Cochliobolus miyabeanus (brown spot disease, rice/protective); settings: Bipolaris oryzae, 96 h, read-out: % Activity level
[21] = LogPA (logP of the stated pure compound or, in a mixture, of the main isomer, 1-substituted 3-aryl-1H-pyrazole)
[22] = Fusarium proliferatum growth, OD 620, 5 days, read-out: % Inhibition des Pilzwachstums bei 50 μM
[23] = Fusarium proliferatum, 5 days at 20° C., HPLC-MS/MS, read-out: % Inhibition der FB1 produktion bei 50 μM
[24] = 72 h, read-out: % Inhibition des Pilzwachstums bei 50 μM
[25] = 168 h, read-out: % Inhibition der DON/AcDON produktion bei 50 μM

CC(C)=CCn1cc(-c2ccncc2)c(-c2c(F)cccc2F)n1 [Compound 7]
pest or weed control at 500 ppm [1]: 73%
chromatographic logP [2, 21]: 1.69

CCC(=O)Nc1cc(-c2cn(C3CCCCO3)nc2-c2ccc(F)cc2)ccn1 (stereo not drawn) [Compound 19]
pest or weed control at 500 ppm [1]: 83%
inhibition at 50 µM [3, 22]: 68%
inhibition at 50 µM [3, 23]: 100%
chromatographic logP [2, 21]: 2.32
pest or weed control at 500 ppm [4]: 100%

CC(C)C(=O)Nc1cc(-c2cn(C3CCCCO3)nc2-c2ccc(F)cc2)ccn1 (stereo not drawn) [Compound 21]
% Wirkungsgrad ([1]; 500 ppm): 73%
% Inhibition der FB1 produktion bei 50 μM ([3]; 5 days at 20° C., HPLC-MS/MS): 100%
% Inhibition des Pilzwachstums bei 50 μM ([3]; Fusarium proliferatum growth, OD 620, 5 days): 55%
% Wirkungsgrad ([4]; 500 ppm): 100%

CC(C)Cn1ncc(-c2ccncc2)c1-c1ccc(F)cc1 [Compound 24]
pest or weed control at 500 ppm [5]: 88%
pest or weed control at 500 ppm [1]: 92%
chromatographic logP [2, 21]: 1.59

CC(C)=CCn1cc(-c2ccncc2)c(-c2ccc(F)cc2)n1 [Compound 30]
pest or weed control at 250 ppm [6]: 80%
pest or weed control at 250 ppm [7]: 95%
chromatographic logP [2, 21]: 2.11
pest or weed control at 500 ppm [8]: 90%

CC(C)Cn1cc(-c2ccnc(NC(=O)C(C)C)c2)c(-c2ccc(F)cc2)n1 [Compound 87]
inhibition at 50 µM ([9]; 50 μM, 7 days at 20° C., read-out: Inhibition der Aflatoxin produktion bei 50 μM): 100%
inhibition at 50 µM ([9]; read-out: % Inhibition des Pilzwachstums bei 50 μM): 97%
pest or weed control at 1000 ppm [10]: 92%
inhibition at 50 µM [11, 24]: 97%
inhibition at 50 µM [11, 25]: 100%
pest or weed control at 100 ppm [12]: 95%
pest or weed control at 1000 ppm [13]: 100%
pest or weed control at 1000 ppm [14]: 88%
inhibition at 50 µM [3, 22]: 83%
inhibition at 50 µM [3, 23]: 100%
chromatographic logP [2, 21]: 2.89
pest or weed control at 1000 ppm [15]: 88%
pest or weed control at 500 ppm [16]: 100%
pest or weed control at 500 ppm [8]: 95%
pest or weed control at 1000 ppm [17]: 100%
pest or weed control at 250 ppm [18]: 100%

CC(C)n1cc(-c2ccncc2)c(-c2ccc(F)cc2)n1 [Compound 89]
pest or weed control at 1000 ppm [10]: 92%
pest or weed control at 100 ppm [12]: 100%
pest or weed control at 1000 ppm [13]: 100%
pest or weed control at 100 ppm [19]: 73%
pest or weed control at 1000 ppm [14]: 83%
pest or weed control at 250 ppm [7]: 92%
chromatographic logP [2, 21]: 1.16
pest or weed control at 500 ppm [16]: 88%
pest or weed control at 500 ppm [8]: 89%
pest or weed control at 1000 ppm [17]: 100%
pest or weed control at 250 ppm [18]: 100%
pest or weed control at 250 ppm [20]: 85%

N#Cc1ccccc1Cn1cc(-c2ccncc2)c(-c2ccc(F)cc2)n1 [Compound 136]
pest or weed control at 250 ppm [6]: 80%
pest or weed control at 500 ppm [5]: 91%
pest or weed control at 500 ppm [1]: 71%
pest or weed control at 250 ppm [7]: 97%
chromatographic logP [2, 21]: 1.49
pest or weed control at 500 ppm [4]: 94%
pest or weed control at 500 ppm [16]: 73%
pest or weed control at 500 ppm [8]: 95%

C=CCNc1nccc(-c2cn(CC(C)C)nc2-c2ccc(F)cc2)n1 [Compound 150]
inhibition at 50 µM [11, 24]: 97%
inhibition at 50 µM [11, 25]: 99%
pest or weed control at 500 ppm [5]: 96%
pest or weed control at 500 ppm [1]: 86%
chromatographic logP [2, 21]: 2.46
pest or weed control at 500 ppm [4]: 100%
pest or weed control at 500 ppm [16]: 93%
pest or weed control at 500 ppm [8]: 95%

Fc1ccc(-c2nn(CC(F)F)cc2-c2ccncc2)cc1 [Compound 169]
pest or weed control at 1000 ppm [10]: 71%
inhibition at 50 µM [11, 24]: 101%
inhibition at 50 µM [11, 25]: 100%
pest or weed control at 100 ppm [12]: 99%
pest or weed control at 1000 ppm [13]: 100%
pest or weed control at 100 ppm [19]: 96%
pest or weed control at 1000 ppm [14]: 100%
pest or weed control at 250 ppm [7]: 100%
chromatographic logP ([2]; LogPA): 1
pest or weed control at 1000 ppm [15]: 100%
pest or weed control at 500 ppm [16]: 89%
pest or weed control at 1000 ppm [17]: 100%
pest or weed control at 250 ppm [18]: 100%

O=C(Nc1cc(-c2cn(CC(F)F)nc2-c2ccc(F)cc2)ccn1)C1CC1 [Compound 217]
pest or weed control at 250 ppm [6]: 85%
pest or weed control at 100 ppm [12]: 98%
inhibition at 50 µM [3, 22]: 97%
inhibition at 50 µM [3, 23]: 100%
pest or weed control at 250 ppm [7]: 100%
chromatographic logP ([2]; LogPA): 2.07
pest or weed control at 500 ppm [16]: 100%
pest or weed control at 250 ppm [18]: 95%
pest or weed control at 250 ppm [20]: 85%
